In patent US20090082322A1, “Gender Differences in Experimental Aortic Aneurysm Formation” (THE REGENTS OF THE UNIVERSITY OF MICHIGAN, priority 2004, published 2009):

Assays:
[1] = test system: MMP-2; experiment: MMP-2 activity in media of IL-1β stimulated aortic explants from pre-treated male rats; type: in vivo, rat
Procedure: Experiment III: Male rats underwent sustained 17-β-estradiol exposure using extended-release, subcutaneously implanted pellets prior to sacrifice and aortic explanation. The explants were stimulated with IL-1β, and MMP-2 activity in the conditioned media was then determined.

[2] = test system: MMP-9; experiment: MMP-9 activity (gelatin zymography) in media of IL-1β stimulated male RASMCs; type: cell-based, Sprague-Dawley rats; conditions: 10^−10 to 10^−6 mol/L, 48 hours with concurrent IL-1β stimulation
Procedure: Experimental interventions were carried out with confluent RASMCs at passages 3 through 8 in serum-free DMEM supplemented with antibiotics. Confluent monolayers of RASMCs were incubated in T-75 plates with IL-1β (2 ng/mL, from Sigma) for 72 hours. This concentration of IL-1β is found in human aortic aneurysms. After 72 hours of IL-1β stimulation, the RASMC-conditioned medium was collected for measurements of TIMP-1 activity, MMP-9 activity, and MMP-9 protein levels. The remaining SMCs were lysed in 1% sodium dodecyl sulfate (SDS), and total cellular protein was determined by a bicinchoninic acid protein assay (Pierce). In separate experiments, the previous protocol was followed, but male RASMCs were incubated with 5 different concentrations of 17-β-estradiol (1×10^−10 to 1×10^−6 mol/L) for 48 hours with concurrent IL-1β stimulation. Zymography supplies were purchased from Novex. MMP distribution after treatment of RASMC with IL-1β and increasing concentrations of 17-β-estradiol was determined. Gelatin substrate zymograms were prepared using precast 10% SDS-polyacrylamide gels containing 1 mg/mL of gelatin. Equal volumes of experimental media samples were diluted into 2× tris-glycine SDS sample buffer and electrophoretically separated under nonreducing conditions. […]

[3] = test system: MMP-9; experiment: MMP-9 activity (zymography) in media of IL-1β stimulated aortic explants from pretreated male rats; type: in vivo, Sprague-Dawley rats; conditions: male rats treated 3 weeks with 0.1 mg 21-day extended release pellet, IL-1β stimulation; control 75.3, p<0.03
Procedure: Zymography supplies were purchased from Novex. MMP distribution after treatment of RASMC with IL-1β and increasing concentrations of 17-β-estradiol was determined. Gelatin substrate zymograms were prepared using precast 10% SDS-polyacrylamide gels containing 1 mg/mL of gelatin. Equal volumes of experimental media samples were diluted into 2× tris-glycine SDS sample buffer and electrophoretically separated under nonreducing conditions. Proteins were renatured in 2.7% Triton X-100, and the gels were incubated overnight at 37° C. in 50 mmol/L tris-HCl containing 5 mmol/L CaCl2 and 2% Brij 35. After overnight staining with Coomassie blue R-250 and de-staining for 4 hours with 10% acetic acid and 40% methanol in water, gelatinase activity was evident by clear bands against a dark blue background. Male Sprague-Dawley rats (190 g to 210 g) were obtained from Charles River Laboratories. Subcutaneous neck implantation of a 21-day slow release 0.1 mg 17-β-estradiol pellet (Innovative Research of America) was performed under general inhalational anesthesia. This particular estradiol dose results in serum estradiol levels at 2 to 3 weeks of 44.7±6.1 pg/mL compared with 15.0±2.2 pg/mL in control rats (p<0.05). Three weeks after pellet implantation, the infrarenal aorta was explanted under general anesthesia. […]

## C[C@]12CC[C@@H]3c4ccc(O)cc4CC[C@H]3[C@@H]1CC[C@@H]2O [17-β-estradiol]
[1]; male rats pre-treated with extended-release s.c. pellets, explants stimulated with IL-1β, control 4.35×10^5, P=0.002
  MMP-2 activity in the media of whole-aortic explants: 2.0×10^5 O.D./mg protein
[1]; male rats pre-treated, vs control
  decrease in MMP-2 activity in the media of whole-aortic explants: 2 fold
[2]
  MMP-9 activity in male RASMC media: no difference
[3]
  MMP-9 activity in conditioned media of aortic explants: 29.9 OD×10^3/mg protein
